Data on two compounds can be found in paper PMC4673972 (Bioinformatics, 2015).

Test [1] concerns the target Bcl-2 (B-cell lymphoma 2) (Homo sapiens, UniProt P10415). Put plainly: intrinsic tryptophan fluorescence quenching. The class given is binding.
For test [2], the target named is B-cell lymphoma 2 (Bcl-2) (UniProt P10415). Description: fluorescence polarisation. (Polarisation of emitted light reports the rotation of a fluorescent probe.)
B-cell lymphoma 2 (Bcl-2), sequence (P10415 whole entry): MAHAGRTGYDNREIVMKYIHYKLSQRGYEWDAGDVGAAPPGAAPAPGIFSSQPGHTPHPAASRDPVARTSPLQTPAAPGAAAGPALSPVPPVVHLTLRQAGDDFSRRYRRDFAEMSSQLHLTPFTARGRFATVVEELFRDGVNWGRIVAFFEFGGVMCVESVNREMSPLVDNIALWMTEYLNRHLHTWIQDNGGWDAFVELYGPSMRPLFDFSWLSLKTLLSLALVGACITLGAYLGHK

Bcl-2 (B-cell lymphoma 2), sequence (P10415 whole entry): as above

As a reminder, the Kd is the concentration at which binding is half-saturated. Lower therefore signals tighter binding. On to `CC(C)(COP(=O)(O)OP(=O)(O)OC[C@H]1O[C@@H](n2cnc3c(N)ncnc32)[C@H](O)[C@@H]1OP(=O)(O)O)[C@@H](O)C(=O)NCCC(=O)NCCS` [CoA], for which, in test [1], the Kd turned out to be 380 ± 80 µM. The compound fluorescent-labeled Bax-BH3 peptide came in with a dissociation constant Kd in test [2] of 0.128 µM.
